Experimental findings from patent publication US8772298B2, “Spirocyclic heterocycles medicaments containing said compounds, use thereof and method for their production” (Boehringer Ingelheim International GmbH, priority 2008, dated 2014) are described below.

The target in this assay is T1, human EGF-R (Homo sapiens, UniProt P00533).
T1 construct: expressed in transfected cells
T1 sequence (P00533 25-1210): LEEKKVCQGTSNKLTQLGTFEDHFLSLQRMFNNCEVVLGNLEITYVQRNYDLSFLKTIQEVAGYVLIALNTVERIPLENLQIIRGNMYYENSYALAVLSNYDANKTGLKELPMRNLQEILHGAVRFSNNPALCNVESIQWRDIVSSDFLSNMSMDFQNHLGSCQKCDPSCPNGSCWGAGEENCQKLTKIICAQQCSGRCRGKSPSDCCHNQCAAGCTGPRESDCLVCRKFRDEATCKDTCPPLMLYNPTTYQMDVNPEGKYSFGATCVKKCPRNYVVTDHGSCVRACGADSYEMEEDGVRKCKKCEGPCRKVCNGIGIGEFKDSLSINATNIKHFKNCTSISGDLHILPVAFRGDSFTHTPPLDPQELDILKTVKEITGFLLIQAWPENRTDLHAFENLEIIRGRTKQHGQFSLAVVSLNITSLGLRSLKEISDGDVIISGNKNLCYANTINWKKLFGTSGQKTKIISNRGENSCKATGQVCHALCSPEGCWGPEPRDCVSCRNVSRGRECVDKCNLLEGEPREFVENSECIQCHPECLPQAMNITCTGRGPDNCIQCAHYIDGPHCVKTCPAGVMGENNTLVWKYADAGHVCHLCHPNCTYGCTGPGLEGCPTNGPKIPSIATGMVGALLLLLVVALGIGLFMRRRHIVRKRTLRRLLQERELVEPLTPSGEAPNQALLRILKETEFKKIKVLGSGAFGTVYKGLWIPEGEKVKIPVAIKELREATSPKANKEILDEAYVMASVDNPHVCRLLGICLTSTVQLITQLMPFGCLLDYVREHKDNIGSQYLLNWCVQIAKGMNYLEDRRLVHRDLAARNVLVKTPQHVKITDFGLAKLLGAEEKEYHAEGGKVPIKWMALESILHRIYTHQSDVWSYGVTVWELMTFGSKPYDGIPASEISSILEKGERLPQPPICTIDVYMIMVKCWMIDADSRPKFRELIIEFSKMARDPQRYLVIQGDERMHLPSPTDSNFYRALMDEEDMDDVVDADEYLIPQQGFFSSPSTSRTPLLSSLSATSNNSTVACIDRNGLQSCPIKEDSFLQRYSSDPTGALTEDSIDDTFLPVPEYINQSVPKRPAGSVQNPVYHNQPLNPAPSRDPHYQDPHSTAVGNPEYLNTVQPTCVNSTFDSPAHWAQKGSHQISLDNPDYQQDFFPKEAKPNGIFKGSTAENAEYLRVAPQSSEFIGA
In words: Inhibition of EGFR-dependent proliferation (EGF-stimulated murine haematopoietic cell line expressing human EGF-R). Format: cell-based. As to conditions: 20 ng/ml human EGF, 48 hours at 37° C., Cell Titer 96 AQueous assay. On the procedure: A murine haematopoietic cell line is genetically modified so as to express functional human EGF-R. The proliferation of this cell line can therefore be stimulated by EGF.
The test is carried out as follows:
The cells are cultivated in RPMI/1640 medium. The proliferation is stimulated with 20 ng/ml of human EGF (Promega). To investigate the inhibitory activity of the compounds according to the invention these compounds are dissolved in 100% dimethylsulphoxide (DMSO) and added to the cultures in various dilutions, the maximum DMSO concentration being 1%. The cultures are incubated for 48 hours at 37° C.
In order to determine the inhibitory activity of the compounds according to the invention the relative cell number is measured in O.D. Units using the Cell Titer 96™ AQueous Non-Radioactive Cell Proliferation Assay (Promega). The relative cell number is calculated as a percentage of the control and the concentration of active substance which inhibits the proliferation of the cells by 50% (IC50) is derived therefrom.
As a reminder, the IC50 is the concentration that gives 50% inhibition. As to `COc1cc2ncnc(Nc3cccc(Cl)c3F)c2cc1O[C@H]1CC[C@@]2(CC1)NCCN(C)C2=O` [1(1), anti-9-[4-(3-chloro-2-fluoro-phenylamino)-7-methoxy-quinazolin-6-yloxy]-4-methyl-1,4-diaza-spiro[5.5]undecan-5-one], half-maximal inhibition (IC50) was put at 2 nM.
`COc1cc2ncnc(Nc3cccc(Cl)c3F)c2cc1O[C@H]1CC[C@]2(CC1)NCCNC2=O` [1(2), syn-9-[4-(3-chloro-2-fluoro-phenylamino)-7-methoxy-quinazolin-6-yloxy]-1,4-diaza-spiro[5.5]undecan-5-one] yielded an IC50 of 2 nM.
In turn, `COc1cc2ncnc(Nc3cccc(Cl)c3F)c2cc1O[C@H]1CC[C@]2(CC1)C(=O)N(C)CCN2C` [2(1), anti-9-[4-(3-chloro-2-fluoro-phenylamino)-7-methoxy-quinazolin-6-yloxy]-1,4-dimethyl-1,4-diaza-spiro[5.5]undecan-5-one] displayed an IC50 of 2 nM.
In the case of `COc1cc2ncnc(Nc3cccc(Cl)c3F)c2cc1O[C@H]1CC[C@@]2(CC1)NCCNC2=O` [Example 1, anti-9-[4-(3-chloro-2-fluoro-phenylamino)-7-methoxy-quinazolin-6-yloxy]-1,4-diaza-spiro[5.5]undecan-5-one] it was 4 nM; in that of `COc1cc2ncnc(Nc3cccc(Cl)c3F)c2cc1O[C@H]1CC[C@]2(CC1)C(=O)NCCN2C` [Example 2, anti-9-[4-(3-chloro-2-fluoro-phenylamino)-7-methoxy-quinazolin-6-yloxy]-1-methyl-1,4-diaza-spiro[5.5]undecan-5-one], 1 nM.
